Key:
[1] = tested on: platelet aggregation induced by thrombin; assay: Platelet aggregation inhibitory activity in vivo (Born aggregometer), thrombin-induced; set-up: species or system New Zealand rabbits; conditions: Oryctolagus cuniculus, Platelet, ip, dose for 50% inhibition of thrombin-induced aggregation curve; rabbits, intraperitoneal, blood 2, 4 and 6 hours after injection; read-out: platelet antiaggregant activity (AAP), DI50, Thrombin
Protocol: (§1) Determination of the platelet aggregation inhibitory activity in vivo
(§2) The activity of the above described compounds as platelet antiaggregant was tested in vivo on rabbits, by the Born aggregometer. The inhibition of the aggregation curve induced by ADP and thrombin was assessed with different drug concentrations according to the platelet reactivity. New Zealand rabbits which had been held fasting for 12 hours with water ad libitum, were anaesthetized with Nembutal in a dose of 35 mg/kg intramuscolarly. The blood was withdrawn from the carotidal arthery, before (control) and 2, 4, and 6 hours after the intraperitoneal injection of the compounds under examination (at the dose indicated below). The blood samples were taken up in a 3.8% aqueous solution of sodium citrate in a ratio 10:1 and thereupon centrifuged at 1500 r.p.m. for 10 minutes, for obtaining a PRP (platelet rich plasma). A portion of such a plasma was thereupon centrifuged at 8000 r.p.m. for 10 minutes, for obtaining a PPP (platelet lean plasma) which was used for zeroing the measuring apparatus.
(§3) From the results of said experiments, there was determined the dose of each product in mg/kg body weight able to induce a 50% inhibition of the aggregation curve (DI50) after treatment, referred to the curve obtained by the same control plasma before treatment.
(§4) In tables I and II are further indicated for each compound the method of preparation; the melting point PF in °C; the platelet antiaggregant activity (AAP) expressed in terms of DI50 in mg/kg, referred to ADP and thrombin respectively; the antithrombin activity (AT) in %; the anticoagulant activity (AC) in %; the fibrinolytic activity (FL) in %; the acute toxicity (LD50) in mice, intraperitoneally, in mg/kg, as previously defined.

[2] = tested on: platelet aggregation induced by ADP; assay: Platelet aggregation inhibitory activity in vivo (Born aggregometer), ADP-induced; set-up: species or system New Zealand rabbits; conditions: Oryctolagus cuniculus, Platelet, ip, dose for 50% inhibition of ADP-induced aggregation curve; rabbits, intraperitoneal, blood 2, 4 and 6 hours after injection; read-out: platelet antiaggregant activity (AAP), DI50, ADP
Protocol: as §1, §2, §3, §4

[3] = Acute toxicity, intraperitoneal; conditions: mouse, in vivo, ip, male Swiss mice, intraperitoneal, 7 days observation; preliminary, by graphic interpolation; read-out: acute toxicity (LD50 / DL50)
Protocol: The acute toxicity limit was determined intraperitoneally on male Swiss mice, weighing 20±2 g, held fasting for 18 hours with water ad libitum.
The animals were maintained under observation for 7 days of treatment, by examining the general symptomatology and noting the death sequency. The preliminary DL50 in mg/kg body weight was calculated by graphic interpolation of the results as obtained.
as §4

[4] = tested on: blood coagulum; assay: Fibrinolytic activity, Fearnley method (lysis of blood coagulum in toto); type: in vivo; conditions: Oryctolagus cuniculus, ip, 0.5 h, percent decrease of coagulum weight after 30 minutes at 37° C.; 25 mg/kg intraperitoneal, rabbits; read-out: fibrinolytic activity (FL)
Protocol: Determination of the fibrinolytic activity
The determination of the fibrinolytic activity was made following the Fearnley method for the lysis of the blood coagulum in toto.
0.2 ml of blood were withdrawn from the marginal vein of the ear of rabbits treated in the same way as the previously described tests, before and after an intraperitoneal injection of the compounds under test at a dose level of 25 mg/kg for each compound.
The blood samples were placed in test tubes containing 1.7 ml of phosphate buffer at pH 7.4 and 0.1 ml of thrombin (Roche Topostasin ® per os) at 50 units NIH/ml, and maintained in an ice bath. The test tubes were maintained at said temperature for 30 minutes and thereupon were transferred to a temperature controlled water bath at 37° C.
The fibrinolytic activity was determined as a percent decrease of the coagulum weight, measured after incubation for 30 minutes at 37° C.
as §4

[5] = tested on: thrombin-induced coagulation of platelet rich plasma; assay: Antithrombin activity on PRP, Hartert's thromboelastograph; type: in vivo, New Zealand rabbits; conditions: Oryctolagus cuniculus, Platelet, ip, percent decrease of index ma/[r+k] vs before treatment; 20 mg/kg intraperitoneal, rabbits
Protocol: Determination of the antithrombin activity
The antithrombin activity on the PRP (platelet rich plasma) obtained following the above described method was assessed by Hartert's thromboelastograph (Hellige model). The coagulation was induced by adding to 0.25 ml of plasma 0.06 ml of a thrombin solution (Roche Topostasin® per os) at 60 units*, pH 7.4**. The antithrombin activity was assessed in terms of a percent decrease of the index (ma/[r+k]) which was calculated from the thromboelastograph diagram, wherein r is the reaction time, k is the speed of the coagulum formation and ma is the maximum spread of the tong, after an intraperitoneal treatment with a dose of 20 mg/kg of each compound under examination, referred to the same index obtained before the treatment (control).
as §4

[6] = tested on: CaCl2-induced plasma coagulation; assay: Anticoagulant activity on PRP, Hartert's thromboelastograph; type: in vivo, New Zealand rabbits; conditions: Oryctolagus cuniculus, ip, percent increase of total time for coagulum formation (r+k) vs before treatment; 25 mg/kg intraperitoneal, rabbits; read-out: anticoagulant activity (AC)
Protocol: Determination of the anticoagulant activity
The anticoagulant activity was also assessed on PRP of animals treated as described in the preceding methods, by using again Hartert's thromboelastograph method.
The plasma coagulation was induced by adding to 0.25 ml PRP a 1.29% solution of CaCl2.
The anticoagulant effect was determined as a percent increase of the total time for the coagulum formation (the index r+k can be obtained from the thromboelastograph diagram) in a plasma after treatment, referred to the same index obtained before the treatment (control). Again the dose level was 25 mg/kg for each compound under examination, intraperitoneally.
as §4

| Structure (SMILES) | ED50 [1] [mg/kg] | ED50 [2] [mg/kg] | LD50 at 168 h [3] [mg/kg] | fibrinolytic activity (percent decrease of coagulum weight) at 25 mg/kg [4] [%] | inhibition in vivo at 20 mg/kg [5] [%] | change in vivo at 25 mg/kg [6] [%] |
| --- | --- | --- | --- | --- | --- | --- |
| C=CCOc1ccc(C(=O)NCc2cccnc2)cc1C(=O)NCc1cccnc1 [Example 7] | 19.2 | 36.3 | 374 | 44.7 | 51.5 | 14.5 |
| C=CCCOc1ccc(C(=O)NCc2cccnc2)cc1C(=O)NCc1cccnc1 [Example 8] | 25.7 | 35.5 | 362 | 42.1 | 50.6 | 14.2 |
| C=CCCCOc1ccc(C(=O)NCc2cccnc2)cc1C(=O)NCc1cccnc1 [Example 9] | 23.2 | 36.2 | 375 | 40.3 | 49.9 | 14.5 |
| C=CCCCCOc1ccc(C(=O)NCc2cccnc2)cc1C(=O)NCc1cccnc1 [Example 10] | 21.1 | 29.4 | 194 | 43.9 | 52.6 | 12.6 |
| CC=CCOc1ccc(C(=O)NCc2cccnc2)cc1C(=O)NCc1cccnc1 [Example 11] | 18.6 | 25.3 | 178 | 44.2 | 52.3 | 13.5 |
| CC(C)Oc1ccc(C(=O)NCc2cccnc2)cc1C(=O)NCc1cccnc1 [Example 12] | 30.9 | 50.2 | 615 | 20.2 | 25.6 | 12.7 |
| CC(C)CCOc1ccc(C(=O)NCc2cccnc2)cc1C(=O)NCc1cccnc1 [Example 13] | 27.1 | 48.3 | 173 | 21.9 | 28.5 | 24.5 |
| CCC(C)Oc1ccc(C(=O)NCc2cccnc2)cc1C(=O)NCc1cccnc1 (stereo not drawn) [Example 14] | 29.7 | 46.4 | 227 | 22.5 | 38.1 | 22.3 |
| CC(C)COc1ccc(C(=O)NCc2cccnc2)cc1C(=O)NCc1cccnc1 [Example 15] | 33 | 52.6 | 471 | 19.8 | 25.5 | 17.6 |
| CC(C)(C)Oc1ccc(C(=O)NCc2cccnc2)cc1C(=O)NCc1cccnc1 [Example 16] | 30.3 | 45.2 | 325 | 21.9 | 27.6 | 13.6 |
| C=CCOc1c(OC)cc(C(=O)NCc2cccnc2)cc1C(=O)NCc1cccnc1 [Example 17] | 32.6 | 51.7 | 298 | 23 | 36 | 14.1 |
| COc1cc(C(=O)NCc2cccnc2)cc(C(=O)NCc2cccnc2)c1OC1CC1 [Example 18] | 22 | 29.4 | 228 | 28.6 | 33.4 | 20.1 |
| COc1cc(C(=O)NCc2cccnc2)cc(C(=O)NCc2cccnc2)c1OC1CCC1 [Example 19] | 25.2 | 34.7 | 254 | 28.1 | 32.8 | 15.6 |
| COc1cc(C(=O)NCc2cccnc2)cc(C(=O)NCc2cccnc2)c1OC1CCCC1 [Example 20] | 21.4 | 35.6 | 375 | 27.9 | 32.6 | 12.9 |
| COc1cc(C(=O)NCc2cccnc2)cc(C(=O)NCc2cccnc2)c1OC1CCCCC1 [Example 21] | 24.5 | 35.8 | 378 | 28.3 | 32.5 | 12.5 |
| C#CCOc1ccc(C(=O)NCc2cccnc2)cc1C(=O)NCc1cccnc1 [Example 22] | 24.4 | 36.5 | 382 | 29.2 | 33.1 | 13.6 |
| COc1c(Cl)cc(C(=O)NCc2cccnc2)cc1C(=O)NCc1cccnc1 [Example 23] | 46.9 | 63.4 | 425 | 16.8 | 22.5 | 12.2 |
| CCCCCOc1c(Cl)cc(C(=O)NCc2cccnc2)cc1C(=O)NCc1cccnc1 [Example 24] | 35.6 | 41.3 | 371 | 6.4 | 24.4 | 16 |
| C=CCOc1c(Cl)cc(C(=O)NCc2cccnc2)cc1C(=O)NCc1cccnc1 [Example 25] | 35.4 | 59.5 | 184 | 25.9 | 40.6 | 15.5 |
| CCCCOc1c(Cl)cc(C(=O)NCc2cccnc2)cc1C(=O)NCc1cccnc1 [Example 26] | 30.2 | 43.7 | 205 | 28.4 | 33.5 | 22.2 |
| CC(C)CCOc1c(Cl)cc(C(=O)NCc2cccnc2)cc1C(=O)NCc1cccnc1 [Example 27] | 27.9 | 40 | 195 | 28.8 | 35.1 | 23.8 |
| CC(C)(C)COc1c(Cl)cc(C(=O)NCc2cccnc2)cc1C(=O)NCc1cccnc1 [Example 28] | 31 | 45.3 | 215 | 25.5 | 27.9 | 19.6 |
